ChEMBL document CHEMBL1275440, “In vitro activity of telavancin against resistant gram-positive bacteria” (2008)
Converted amounts (≈) assume the structure as drawn. The source made the active and inactive calls. The rule behind the calls is not given here.

How the values were obtained:
[1] = system: Staphylococcus epidermidis; assay: Antibacterial activity against methicillin resistant Staphylococcus epidermidis ATCC 35984 assessed as bacterial count at 16 ug/ml after 8 hrs by time-kill assay; format: functional
Streptococcus pneumoniae [2] = assay: Antibacterial activity against multidrug resistant Streptococcus pneumoniae MED 1090 assessed as bacterial count at 0.03 ug/ml after 24 hrs by time-kill assay; format: functional
Streptococcus pyogenes [3] = assay: Antibacterial activity against Streptococcus pyogenes MED 2040 assessed as bacterial count at 2 ug/ml after 8 hrs by time-kill assay; format: functional
Enterococcus faecalis [4] = assay: Antibacterial activity against Enterococcus faecalis ATCC 51575 assessed as bacterial count at 2 ug/ml after 8 hrs by time-kill assay; format: functional
Streptococcus pyogenes [5] = assay: Antibacterial activity against Streptococcus pyogenes MED 2040 assessed as bacterial count at […] after 24 hrs by time-kill assay; format: functional
Streptococcus agalactiae [6] = assay: Antibacterial activity against Streptococcus agalactiae MED 2038 assessed as bacterial count at 2 ug/ml after 8 hrs by time-kill assay; format: functional
Staphylococcus aureus [7] = assay: Antibacterial activity against methicillin resistant Staphylococcus aureus MED 2028 osteomyelitis isolate assessed as bacterial count at 16 ug/ml after 2 hrs by time-kill assay; format: functional
Enterococcus faecalis [8] = system: Enterococcus faecalis
[9] = system: Staphylococcus auricularis; assay: Antibacterial activity against methicillin resistant coagulase-negative Staphylococcus auricularis clinical isolate by broth microdilution method; format: functional
Streptococcus pneumoniae [10] = assay: Antibacterial activity against multidrug resistant Streptococcus pneumoniae MED 1090 assessed as bacterial count at 0.03 ug/ml after 2 hrs by time-kill assay; format: functional
Staphylococcus aureus [11] = assay: Antibacterial activity against methicillin resistant Staphylococcus aureus MED 1805 bloodstream isolate assessed as bacterial count at 2 ug/ml after 24 hrs by time-kill assay; format: functional
Streptococcus pneumoniae [12] = assay: Antibacterial activity against multidrug resistant Streptococcus pneumoniae MED 1090 assessed as bacterial count at 0.06 ug/ml after 2 hrs by time-kill assay; format: functional
Streptococcus pyogenes [13] = assay: Antibacterial activity against Streptococcus pyogenes MED 2040 assessed as bacterial count at 0.5 ug/ml after 24 hrs by time-kill assay; format: functional
Streptococcus agalactiae [14] = assay: Antibacterial activity against Streptococcus agalactiae MED 2038 assessed as bacterial count at 0.5 ug/ml after 24 hrs by time-kill assay; format: functional
Streptococcus pneumoniae [15] = assay: Antibacterial activity against multidrug resistant Streptococcus pneumoniae MED 1090 assessed as bacterial count at 8 ug/ml after 24 hrs by time-kill assay; format: functional
Streptococcus pneumoniae [16] = assay: Antibacterial activity against multidrug-resistant Streptococcus pneumoniae clinical isolate by broth microdilution method; format: functional
Streptococcus pneumoniae [17] = assay: Antibacterial activity against multidrug resistant Streptococcus pneumoniae MED 1090 assessed as bacterial count at 8 ug/ml after 2 hrs by time-kill assay; format: functional
[18] = system: Staphylococcus epidermidis; assay: Antibacterial activity against methicillin resistant Staphylococcus epidermidis ATCC 35984 assessed as bacterial count at 2 ug/ml after 2 hrs by time-kill assay; format: functional
Staphylococcus aureus [19] = assay: Antibacterial activity against methicillin resistant Staphylococcus aureus MED 1805 bloodstream isolate assessed as bacterial count at 2 ug/ml after 8 hrs by time-kill assay; format: functional
Staphylococcus aureus [20] = assay: Antibacterial activity against methicillin resistant Staphylococcus aureus clinical isolate assessed as susceptibility level by broth microdilution method; format: functional
Streptococcus agalactiae [21] = assay: Antibacterial activity against Streptococcus agalactiae MED 2038 assessed as bacterial count at 0.5 ug/ml after 4 hrs by time-kill assay; format: functional
Staphylococcus aureus [22] = assay: Antibacterial activity against methicillin resistant Staphylococcus aureus MED 2028 osteomyelitis isolate assessed as bacterial count at 2 ug/ml after 24 hrs by time-kill assay; format: functional
Staphylococcus aureus [23] = assay: Antibacterial activity against methicillin resistant Staphylococcus aureus MED 2028 osteomyelitis isolate assessed as bacterial count at 4 ug/ml after 4 hrs by time-kill assay; format: functional
[24] = system: Staphylococcus epidermidis; assay: Antibacterial activity against methicillin resistant Staphylococcus epidermidis ATCC 35984 by broth microdilution method; format: functional
Streptococcus agalactiae [25] = assay: Antibacterial activity against Streptococcus agalactiae MED 2038 assessed as bacterial count at 0.5 ug/ml after 2 hrs by time-kill assay; format: functional
Staphylococcus aureus [26] = assay: Antibacterial activity against methicillin resistant Staphylococcus aureus MED 1805 bloodstream isolate by broth microdilution method; format: functional
Staphylococcus aureus [27] = assay: Antibacterial activity against methicillin resistant Staphylococcus aureus MED 1805 bloodstream isolate assessed as bacterial count at 16 ug/ml after 8 hrs by time-kill assay; format: functional
Streptococcus mitis = assay: Antibacterial activity against Streptococcus mitis clinical isolate by broth microdilution method; format: functional
Staphylococcus aureus [28] = assay: Antibacterial activity against methicillin resistant Staphylococcus aureus MED 1805 bloodstream isolate assessed as bacterial count at 2 ug/ml after 4 hrs by time-kill assay; format: functional
[29] = system: Staphylococcus haemolyticus; assay: Antibacterial activity against methicillin resistant coagulase-negative Staphylococcus haemolyticus clinical isolate by broth microdilution method; format: functional
Enterococcus faecalis [30] = assay: Antibacterial activity against vancomycin resistant Enterococcus faecalis VanA clinical isolate by broth microdilution method; format: functional
[31] = system: Staphylococcus epidermidis; assay: Antibacterial activity against methicillin resistant Staphylococcus epidermidis ATCC 35984 assessed as bacterial count at 8 ug/ml after 8 hrs by time-kill assay; format: functional
Staphylococcus aureus [32] = assay: Antibacterial activity against methicillin resistant Staphylococcus aureus MED 1805 bloodstream isolate assessed as bacterial count at 16 ug/ml after 4 hrs by time-kill assay; format: functional
Streptococcus pyogenes [33] = assay: Antibacterial activity against Streptococcus pyogenes MED 2040 assessed as bacterial count at 8 ug/ml after 2 hrs by time-kill assay; format: functional
[34] = system: Staphylococcus epidermidis; assay: Antibacterial activity against methicillin resistant Staphylococcus epidermidis ATCC 35984 assessed as bacterial count at 4 ug/ml after 8 hrs by time-kill assay; format: functional
Staphylococcus aureus [35] = assay: Antibacterial activity against methicillin resistant Staphylococcus aureus MED 1805 bloodstream isolate assessed as bacterial count at 4 ug/ml after 2 hrs by time-kill assay; format: functional
[36] = system: Staphylococcus epidermidis; assay: Antibacterial activity against methicillin resistant Staphylococcus epidermidis ATCC 35984 assessed as bacterial count at 4 ug/ml after 24 hrs by time-kill assay; format: functional
[37] = Antibacterial activity against methicillin resistant coagulase-negative Staphylococcus hominis subsp. novobiosepticus clinical isolate by broth microdilution method; format: functional
Streptococcus pneumoniae [38] = assay: Antibacterial activity against multidrug resistant Streptococcus pneumoniae MED 1090 assessed as bacterial count at 2 ug/ml after 4 hrs by time-kill assay; format: functional
Streptococcus pyogenes [39] = assay: Antibacterial activity against Streptococcus pyogenes MED 2040 assessed as bacterial count at […] after 8 hrs by time-kill assay; format: functional
[40] = system: Staphylococcus epidermidis; assay: Antibacterial activity against methicillin resistant Staphylococcus epidermidis ATCC 35984 assessed as bacterial count at 2 ug/ml after 8 hrs by time-kill assay; format: functional
[41] = system: Staphylococcus epidermidis; assay: Antibacterial activity against methicillin resistant Staphylococcus epidermidis ATCC 35984 assessed as bacterial count at 16 ug/ml after 24 hrs by time-kill assay; format: functional
Staphylococcus aureus [42] = assay: Antibacterial activity against methicillin resistant Staphylococcus aureus MED 2028 osteomyelitis isolate assessed as bacterial count at 16 ug/ml after 24 hr by time-kill assay; format: functional

SMILES: CCCCCCCCCCNCCN[C@@]1(C)C[C@H](O[C@H]2[C@H](Oc3c4cc5cc3Oc3ccc(cc3Cl)[C@@H](O)[C@@H](NC(=O)[C@@H](CC(C)C)NC)C(=O)N[C@@H](CC(N)=O)C(=O)N[C@H]5C(=O)N[C@H]3C(=O)N[C@H](C(=O)N[C@H](C(=O)O)c5cc(O)c(CNCP(=O)(O)O)c(O)c5-c5cc3ccc5O)[C@H](O)c3ccc(c(Cl)c3)O4)O[C@H](CO)[C@@H](O)[C@@H]2O)O[C@@H](C)[C@H]1O [TELAVANCIN]
- log10CFU/ml [1]: 3.3
- log10CFU/ml (Streptococcus pneumoniae [2]): 3.4
- log10CFU/ml (Streptococcus pyogenes [3]): 3.1
- log10CFU/ml (Enterococcus faecalis [4]): 0.6
- log10CFU/ml (Streptococcus pyogenes [5]): 2.2
- log10CFU/ml (Streptococcus agalactiae [6]): 1
- log10CFU/ml (Staphylococcus aureus [7]): 0.3
- MIC50 (Enterococcus faecalis [8]): inactive
- MIC90 (Enterococcus faecalis [8]): inactive
- MIC50 [9]: 0.5 µg/mL (≈ 0.285 µM)
- MIC90 [9]: 1 µg/mL (≈ 0.57 µM)
- log10CFU/ml (Streptococcus pneumoniae [10]): 1.1
- log10CFU/ml (Staphylococcus aureus [11]): 2.8
- log10CFU/ml (Streptococcus pneumoniae [12]): 1
- log10CFU/ml (Streptococcus pyogenes [13]): 3.1
- log10CFU/ml (Streptococcus agalactiae [14]): 3.6
- log10CFU/ml (Streptococcus pneumoniae [15]): 3.4
- MIC50 (Streptococcus pneumoniae [16]): 0.015 µg/mL (≈ 0.00854 µM)
- MIC90 (Streptococcus pneumoniae [16]): 0.03 µg/mL (≈ 0.0171 µM)
- log10CFU/ml (Streptococcus pneumoniae [17]): 1.2
- log10CFU/ml [18]: 0.2
- log10CFU/ml (Staphylococcus aureus [19]): 2.7
- Activity (Staphylococcus aureus [20]): 100%
- log10CFU/ml (Streptococcus agalactiae [21]): 1
- log10CFU/ml (Staphylococcus aureus [22]): 3.4
- log10CFU/ml (Staphylococcus aureus [23]): 1.7
- MIC [24]: 1 µg/mL (≈ 0.57 µM)
- log10CFU/ml (Streptococcus agalactiae [25]): 0.87
- MIC (Staphylococcus aureus [26]): 0.5 µg/mL (≈ 0.285 µM)
- log10CFU/ml (Staphylococcus aureus [27]): 2.9
- MIC (Streptococcus mitis): 0.015 µg/mL (≈ 0.00854 µM)
- MIC50 (Streptococcus mitis): inactive
- MIC90 (Streptococcus mitis): inactive
- log10CFU/ml (Staphylococcus aureus [28]): 2.8
- MIC50 [29]: 0.5 µg/mL (≈ 0.285 µM)
- MIC90 [29]: 1 µg/mL (≈ 0.57 µM)
- MIC50 (Enterococcus faecalis [30]): 8 µg/mL (≈ 4.56 µM)
- MIC90 (Enterococcus faecalis [30]): 16 µg/mL (≈ 9.11 µM)
- log10CFU/ml [31]: 3.3
- log10CFU/ml (Staphylococcus aureus [32]): 1.6
- log10CFU/ml (Streptococcus pyogenes [33]): 0.6
- log10CFU/ml [34]: 3.2
- log10CFU/ml (Staphylococcus aureus [35]): 1.2
- log10CFU/ml [36]: 3.3
- MIC50 [37]: 0.5 µg/mL (≈ 0.285 µM)
- MIC90 [37]: 1 µg/mL (≈ 0.57 µM)
- log10CFU/ml (Streptococcus pneumoniae [38]): 3
- log10CFU/ml (Streptococcus pyogenes [39]): 0.5
- log10CFU/ml [40]: 0.7
- log10CFU/ml [41]: 3.3
- log10CFU/ml (Staphylococcus aureus [42]): 3.4
